Laboratory results: patent US5705487A, “Antithrombotic agents” (priority 1995, dated 1998)
Counter-ions that a name gives are not always drawn.

Key:
Human Thrombin = Human Thrombin (Homo sapiens, UniProt P00734); experiment: Inhibition of the amidase activity of thrombin (Kass); type: biochemical; details: chromogenic substrate N-benzoyl-Phe-Val-Arg-p-nitroanilide; mean over range of concentrations
factor Xa = molecular target: T1, factor Xa (Homo sapiens, UniProt P00742); experiment: Kass, factor Xa chromogenic substrate assay; type: biochemical; details: substrate N-Benzoyl-Ile-Glu-Gly-Arg-p-nitroanilide
T1 construct: Human factors X, Xa, IXa, XIa, and XIIa are purchased; purchased Enzyme Research Laboratories, South Bend, Ind
Experimental: (§2) By substantially following the procedures described above for human thrombin, and using other human blood coagulation system serine proteases and proteases of the fibrinolytic system with the appropriate chromogenic substrates, identified below, selectivity of the compounds of the present invention with respect to the coagulation factor serine proteases and with respect to the fibrinolytic system serine proteases are evaluated as well as their substantial lack of interference with serine proteases of the fibrinolytic system.
(§3) Chromogenic substrates: N-Benzoyl-Ile-Glu-Gly-Arg-p-nitroanilide (for factor Xa); N-Cbz-D-Arg-Gly-Arg-p-nitroanilide (for factor IXa assay as the factor Xa substrate); Pyroglutamyl-Pro-Arg-p-nitroanilide (for Factor XIa and for aPC); H-D-Pro-Phe-Arg-p-nitroanilide (for factor XIIa); and Pyroglutamyl-Gly-Arg-p-nitroanilide (for urokinase); are purchased from KabiVirum, Stockholm, Sweden, or from Midwest Biotech, Fishers, Ind. Bovine trypsin is purchased from Worthington Biochemicals, Freehold, N.J., and human plasma kallikrein from Kabi Vitrum, Stockholm, Sweden. […] N-Benzoyl-Phe-Val-Arg-p-nitroanilide, the substrate for human thrombin and for trypsin, is synthesized according to procedures described above for the compounds of the present invention, using known methods of peptide coupling from commercially available reactants or purchased from Midwest Biotech, Fishers, Ind.

Bovine trypsin = molecular target: T2, Bovine trypsin (Bos taurus, UniProt P00760); experiment: Kass, trypsin chromogenic substrate assay; type: biochemical; details: substrate N-Benzoyl-Phe-Val-Arg-p-nitroanilide
T2 construct: Bovine trypsin is purchased from Worthington Biochemicals; purchased Worthington Biochemicals, Freehold, N.J
T2 sequence (P00760 24-246): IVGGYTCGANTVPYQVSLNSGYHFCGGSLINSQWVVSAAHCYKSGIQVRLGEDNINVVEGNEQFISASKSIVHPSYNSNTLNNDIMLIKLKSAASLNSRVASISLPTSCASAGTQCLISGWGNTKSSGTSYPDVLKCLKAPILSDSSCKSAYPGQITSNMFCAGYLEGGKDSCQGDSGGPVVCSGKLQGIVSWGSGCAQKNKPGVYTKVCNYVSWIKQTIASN
Experimental: as §2, §3

Human plasmin = molecular target: T3, Human plasmin (Homo sapiens, UniProt P00747); experiment: Kass, plasmin chromogenic substrate assay; type: biochemical; details: substrate H-D-Val-Leu-Lys-p-nitroanilide
T3 construct: Human plasmin is purchased from Boehringer Mannheim; purchased Boehringer Mannheim, Indianapolis, Ind
Experimental: as §2
(§4) Human plasmin is purchased from Boehringer Mannheim, Indianapolis, Ind.; nt-PA is purchased as single chain activity reference from American Diagnostica, Greenwich, Conn.; modified-t-PA6 (mt-PA6) is prepared at Eli Lilly and Company by procedure known in the art (See, Burck, et al., J. Biol. Chem., 265, 5120-5177 (1990). Plasmin chromogenic substrate H-D-Val-Leu-Lys-p-nitroanilide and tissue plasminogen activator (t-PA) substrate H-D-Ile-Pro-Arg-p-nitroanilide are purchased from Kabi Vitrum, Stockholm, Sweden.

t-PA = molecular target: T4, t-PA (Homo sapiens, UniProt P00750); experiment: Kass, t-PA chromogenic substrate assay; type: biochemical; details: substrate H-D-Ile-Pro-Arg-p-nitroanilide
T4 construct: purchased American Diagnostica, Greenwich, Conn
Experimental: as §2, §4

Human Plasma [1] = experiment: Human plasma anticoagulation, thrombin time (TT); type: biochemical; details: concentration required to double the clotting time
Method in brief: (§1)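 Compound was spiked over a wide concentration range into citrated human plasma, and clotting times were read on a coagulation instrument. PT was started with saline plus Thromboplastin-C. APTT used 120 s preincubation with Actin, then 0.02M CaCl2. TT used saline plus bovine thrombin (10 NIH units/mL). Doubling concentrations were obtained by linear extrapolation.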

Human Plasma [2] = experiment: Human plasma anticoagulation, activated partial thromboplastin time (APTT); type: biochemical; details: concentration required to double the clotting time
Method in brief: as §1

Human Plasma [3] = experiment: Human plasma anticoagulation, prothrombin time (PT); type: biochemical; details: concentration required to double the clotting time
Method in brief: as §1

[4] = Index of bioavailability (% relative activity from plasma TT, oral vs i.v.); type: in vivo, rat; details: AUC of plasma TT time course, p.o. vs i.v. bolus, dose adjusted
Experimental: Parke Davis) at 37° C. […] Assays are done in duplicate and averaged. […] Each sample population represented alternating sequential time points.

[5] = Simoons et al., Circulation, 90, I-231 (1994); cited from earlier work
[6] = Arterio-Venous shunt model; type: in vivo, rat; details: during infusion reducing thrombus weight to approximately 20% of control
Experimental: The left jugular vein and right carotid artery are cannulated with 20 cm lengths of polyethylene PE 60 tubing. A 6 cm center section of larger tubing (PE 190) with a cotton thread (5 cm) in the lumen, is friction fitted between the longer sections to complete the arterio-venous shunt circuit. Blood circulated through the shunt for 15 minutes before the thread is carefully removed and weighed. The weight of a wet thread is subtracted from the total weight of the thread and thrombus (see J. R. Smith, Br. J. Pharmacol., 77,29 (1982)).
Assays are done in duplicate and averaged.

T1 sequence (P00742 235-488 limits assumed): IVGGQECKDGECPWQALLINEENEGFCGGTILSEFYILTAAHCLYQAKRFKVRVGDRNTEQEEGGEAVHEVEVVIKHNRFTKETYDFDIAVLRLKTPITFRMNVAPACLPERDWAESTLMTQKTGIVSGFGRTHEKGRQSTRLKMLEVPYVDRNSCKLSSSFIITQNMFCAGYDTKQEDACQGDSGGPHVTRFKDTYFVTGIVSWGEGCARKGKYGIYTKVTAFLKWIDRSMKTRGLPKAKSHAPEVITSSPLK
T1 sequence (P00742 41-179 partner limits assumed): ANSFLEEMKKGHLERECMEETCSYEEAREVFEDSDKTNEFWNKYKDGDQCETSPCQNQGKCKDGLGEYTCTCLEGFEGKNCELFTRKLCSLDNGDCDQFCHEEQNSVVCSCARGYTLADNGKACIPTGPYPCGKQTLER
T4 sequence (P00750 36-562): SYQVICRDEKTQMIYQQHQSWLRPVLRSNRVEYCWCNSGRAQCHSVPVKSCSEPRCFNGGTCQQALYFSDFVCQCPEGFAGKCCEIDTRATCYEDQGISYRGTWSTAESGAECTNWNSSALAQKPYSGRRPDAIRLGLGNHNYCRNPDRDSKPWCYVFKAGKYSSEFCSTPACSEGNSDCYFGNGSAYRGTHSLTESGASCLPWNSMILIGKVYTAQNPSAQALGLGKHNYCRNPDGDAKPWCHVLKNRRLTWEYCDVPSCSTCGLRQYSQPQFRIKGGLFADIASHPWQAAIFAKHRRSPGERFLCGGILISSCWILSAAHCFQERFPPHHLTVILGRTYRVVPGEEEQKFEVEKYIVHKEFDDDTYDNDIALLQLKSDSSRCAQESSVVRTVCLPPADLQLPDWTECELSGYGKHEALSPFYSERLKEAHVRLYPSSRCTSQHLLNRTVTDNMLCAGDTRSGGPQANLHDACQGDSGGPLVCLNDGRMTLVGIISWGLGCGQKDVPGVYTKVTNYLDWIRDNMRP
T3 sequence (P00747 581-810 limits assumed): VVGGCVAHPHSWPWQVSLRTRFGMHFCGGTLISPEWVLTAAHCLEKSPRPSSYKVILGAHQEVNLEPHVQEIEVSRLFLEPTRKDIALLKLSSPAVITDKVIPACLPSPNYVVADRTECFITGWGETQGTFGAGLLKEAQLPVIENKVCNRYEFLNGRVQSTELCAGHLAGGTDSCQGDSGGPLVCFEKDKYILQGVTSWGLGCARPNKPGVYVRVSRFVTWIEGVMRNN
T3 sequence (P00747 97-580 partner limits assumed): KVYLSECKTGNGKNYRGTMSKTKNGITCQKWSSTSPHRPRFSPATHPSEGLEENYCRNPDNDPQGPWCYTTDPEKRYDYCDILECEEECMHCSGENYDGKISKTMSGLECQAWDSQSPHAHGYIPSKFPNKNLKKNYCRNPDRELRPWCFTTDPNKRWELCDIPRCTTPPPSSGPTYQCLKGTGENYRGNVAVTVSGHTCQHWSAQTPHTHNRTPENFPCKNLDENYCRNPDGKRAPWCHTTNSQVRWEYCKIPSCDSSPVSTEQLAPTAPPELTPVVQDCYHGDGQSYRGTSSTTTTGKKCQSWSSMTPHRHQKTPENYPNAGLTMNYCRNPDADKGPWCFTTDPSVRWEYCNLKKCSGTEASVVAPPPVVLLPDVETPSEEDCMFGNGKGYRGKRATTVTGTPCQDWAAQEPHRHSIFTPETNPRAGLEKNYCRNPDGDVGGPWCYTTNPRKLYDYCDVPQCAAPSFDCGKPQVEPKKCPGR

Row | Molecule | Kass × 10^6 (L/mole) Human Thrombin (Human Thrombin) | Kass × 10^6 (L/mole) Xa (factor Xa) | Kass × 10^6 (L/mole) Trypsin (Bovine trypsin) | Kass × 10^6 (L/mole) Plasmin (Human plasmin) | Kass × 10^6 (L/mole) t-PA (t-PA) | Human Plasma Anticoagulation 2x Clotting time TT (Human Plasma [1]) | Human Plasma Anticoagulation 2x Clotting time APTT (Human Plasma [2]) | Human Plasma Anticoagulation 2x Clotting time PT (Human Plasma [3]) | % oral/i.v. activity (Rat) [4] [%] | anticoagulant in man [5] | PTT extended [6]
1 | Cl.Cl.Cl.N=C(N)c1ccc(CNC(=O)[C@@H]2C[C@@H]3CCCC[C@@H]3N2C(=O)[C@H]2CCCCN2)cc1 (relative stereo) [Example 20, D-hPro-Ohi-p-NHCH2 C6 H4 C(NH)NH2.3HCl] | 10 × 10^6 L/mole | 0.10 × 10^6 L/mole | 19 × 10^6 L/mole | 0.10 × 10^6 L/mole | 0.0077 × 10^6 L/mole | 62 ng/mL | 550 ng/mL | 600 ng/mL | 23 |  | 
2 | CN[C@H](Cc1ccccc1)C(=O)N1CCC[C@H]1C(=O)N[C@H](C=O)CCCNC(=N)N.O=S(=O)(O)O [D-MePhe-Pro-Arg-H sulfate] |  |  |  |  |  |  |  |  |  | is an anticoagulant in man | 
3 | CCS(=O)(=O)N[C@H](Cc1ccccc1)C(=O)N1CCC[C@H]1C(=O)NCCCCN=C(N)N.Cl [Example 1, EtSO2 -D-Phe-Pro-Agm.HCl] |  |  |  |  |  |  |  |  | 8 |  | 
4 | Cl.N=C(N)c1ccc(CNC(=O)[C@@H]2CCCN2C(=O)[C@@H](CC2CCCCC2)NCC(=O)O)cc1 [Example 48, HOOCCH2 -D-Cha-Pro-p-NHCH2 C6 H4 C(NH)NH2.HCl] |  |  |  |  |  | 2. ng/mL |  |  |  |  | about 120 % of control
5 | N=C(N)N1CCC(CCNC(=O)[C@@H]2CCCN2C(=O)[C@@H](CC2CCCCC2)NCC(=O)O)CC1 [Example 57, HO2 CCH2 -D-Cha-Pro-4-NHCH2 CH2 -1-amidinopiperidine.HCl] | 39 × 10^6 L/mole | 0.01 × 10^6 L/mole | 0.24 × 10^6 L/mole | 0.01 × 10^6 L/mole | < 0.001 × 10^6 L/mole | 14 ng/mL | 360 ng/mL | 340 ng/mL |  |  | 
6 | Cl.O=C(O)CN[C@H](CC1CCCCC1)C(=O)N1CCC[C@H]1C(=O)NCC1=CCNCC1 [Example 58, HO2 CCH2 -D-Cha-Pro-4-NHCH2 -3,4-dehydropiperidine.HCl] | 0.60 × 10^6 L/mole | < 0.001 × 10^6 L/mole | 0.40 × 10^6 L/mole | < 0.001 × 10^6 L/mole | < 0.001 × 10^6 L/mole | 710 ng/mL | 14,300 ng/mL | 11,400 ng/mL |  |  | 
7 | Cl.O=C(O)CN[C@H](CC1CCCCC1)C(=O)N1CCC[C@H]1C(=O)NCCC1=CCNCC1 [Example 59, HO2 CCH2 -D-Cha-Pro-4-NHCH2 CH2 -3,4-dehydro-piperidine.HCl] | 1.10 × 10^6 L/mole | < 0.001 × 10^6 L/mole | 0.21 × 10^6 L/mole | < 0.001 × 10^6 L/mole | < 0.001 × 10^6 L/mole | 420 ng/mL | 5,500 ng/mL | 7,000 ng/mL |  |  | 
8 | Cl.O=C(O)CN[C@H](CC1CCCCC1)C(=O)N1CCC[C@H]1C(=O)NCCCC1=CCNCC1 [Example 60, HO2 CCH2 -D-Cha-Pro-4-NHCH2 CH2 CH2 -3,4-dehydro-piperidine.HCl] | 0.24 × 10^6 L/mole | < 0.001 × 10^6 L/mole | 0.03 × 10^6 L/mole | < 0.001 × 10^6 L/mole | < 0.001 × 10^6 L/mole | 3,200 ng/mL | 22,200 ng/mL | 77,700 ng/mL |  |  | 
9 | N=C(N)NCCCCNC(=O)[C@@H]1CCCN1C(=O)[C@@H]1NCC[C@H]2CCCC[C@H]21 [Example 61, N-[4-[(aminoiminomethyl)amino]butyl]-1-[[(4aR,8aR)-decahydro-1(R)-isoquinolinyl]carbonyl]-1-prolinamide trihydrochloride] | 63 × 10^6 L/mole | 0.03 × 10^6 L/mole | 1.0 × 10^6 L/mole | 0.004 × 10^6 L/mole | 0.008 × 10^6 L/mole | 45 ng/mL | 679 ng/mL | 756 ng/mL |  |  | 
10 | D-hPro-N(PhCH2 CH2)Gly-p-NHCH2 -C6 H4 C(NH)NH2.2HCl [Example 21] | 3.6 × 10^6 L/mole | 0.62 × 10^6 L/mole | 0.96 × 10^6 L/mole | 0.031 × 10^6 L/mole | 0.002 × 10^6 L/mole | 160 ng/mL | 2,000 ng/mL | 1,000 ng/mL |  |  | 
11 | EtSO2 -D-Phe-Pro-p-NHCH2 CH2 C6 H4 CNH(NH)NH2.HCl [Example 35] | 0.09 × 10^6 L/mole | < 0.001 × 10^6 L/mole | 0.04 × 10^6 L/mole | < 0.001 × 10^6 L/mole | < 0.001 × 10^6 L/mole | 4,500 ng/mL | 50,400 ng/mL | 78,400 ng/mL |  |  | 
